Assay results from patent US20260152533A1, “COMBINATION INHIBITORS FOR TREATING FIBROSIS” (Memorial Sloan-Kettering Cancer Center, priority 2021, published 2026).

Tests used:
[1] = tested on: pyruvate carboxylase (PC); assay: Stable isotope tracing in NIH-3T3 cells (surrogate for PC activity); format: cell-based, mouse
Protocol: Cells were plated in six-well cell culture plates at a concentration aimed to reach 0.5-1×10^6 cells at the time of harvest. For quantification of relative metabolite abundance, cells were cultured with glutamine-free DMEM containing different concentrations of L-glutamine and supplemented with 10% dialyzed FBS and in some experiments were treated with TGFβ for 48 hours. For the [U-^13C]and [3,4-^13C]glucose tracing experiments, cells were cultured as above, and in the last 8 hours media was replaced with DMEM without D-glucose and L-glutamine supplemented with 2 mM or 0.2 mM L-glutamine and 10 mM [U-^13C]or [3,4-^13C]D-glucose (Cambridge Isotope Laboratories) and 10% dialyzed FBS. For the [U-^13C]and [1-^13C]lactate tracing experiments, cells were cultured in 2 or 0.2 mM L-glutamine, 10 or 1 mM D-glucose in the presence or absence of 10 mM sodium lactate, and in the last 8 hours media was replaced with DMEM without D-glucose and L-glutamine supplemented with 2 mM or 0.2 mM L-glutamine, 10 or 1 mM D-glucose, 10 mM [U-^13C]or [1-^13C]sodium lactate (Cambridge Isotope Laboratories) and 10% dialyzed FBS. For relative quantification of metabolites by gas chromatography-mass spectroscopy (GC-MS), cells were washed briefly with PBS, which was then fully aspirated and metabolism was quenched by immediately adding 1 mL of 80:20 methanol:water stored at −80° C. containing 20 μM deuterated 2-hydroxyglutarate (d5-2HG) as an internal standard. For stable isotope tracing experiments, metabolism was quenched without the PBS washing step by adding 1 mL of 80:20 methanol:water as above. After overnight incubation at −80° C., the resulting extracts were scraped on dry ice, transferred into a 1.5 mL centrifuge tube, and centrifuged at 20,000 g for 20 minutes at 4° C. The supernatants were collected in clean tubes and dried in a vacuum evaporator (Genevac EZ-2 Elite) for 2 hours.
For [U-^13C]glucose tracing into proteinogenic amino acids, cells were cultured in 10% Gln in the presence or absence of TGFβ for 48 hours. In the last 24 hours, the media including all treatments was replaced with DMEM without L-glutamine and D-glucose and supplemented with 0.2 mM L-glutamine and 10 mM [U-^13C]D-glucose (Cambridge Isotope Laboratories) and 10% dialyzed FBS. For [U-^13C]lactate tracing into ECM, confluent cells were cultured in 10% Gln in the presence of 10 mM [U-^13C]sodium lactate for 6 days. The media was replaced every other day. ECM was decellularized as described above. Cells and ECM were washed with PBS, and proteins were precipitated with methanol:chloroform:water (1:1:1). The interphase was washed with methanol, and the dried pellet was subjected to acid hydrolysis with 6 N hydrochloric acid (HCl) and incubation at 95° C. for 16 hours. Samples were cooled to room temperature and centrifuged at 20,000 g for 10 minutes. The cleared supernatant was dried in a vacuum evaporator (Genevac EZ-2 Elite) for 2 hours, and abundance of aspartate, glutamate/glutamine or hydroxyproline isotopologues was measured by GC-MS as described below.
GC-MS measurements were performed as described before^11. Ions used for quantification of metabolite levels were as follows: d5-2HG m/z 354; citrate m/z 465; alpha-ketoglutarate m/z 304; succinate m/z 247; fumarate m/z 245; malate m/z 335; aspartate m/z 232; hydroxyproline m/z 332; proline m/z 216; glutamate m/z 246; glutamine m/z 245; lactate m/z 219; pyruvate m/z 174. All peaks were manually inspected and verified relative to known spectra for each metabolite. Peak identification and integration were done with MassHunter software vB.09 (Agilent Technologies). For relative quantification of cell samples, integrated peak areas were normalized to the internal standard d5-2HG and to the packed cell volume of each sample. Absolute quantification of hydroxyproline in tumor acid hydrolysates was performed against a standard curve of commercial trans-4-hydroxy-L-proline (Sigma). […]

NIH-3T3 cells [2] = assay: Western blot of NIH-3T3 cells (collagen I, GCN2, ATF4, PC); format: cell-based, mouse
Excerpt: PSCs were isolated from C57BL/6 mice by differential centrifugation as previously described^49 and their mesenchymal origin was validated by analyzing the expression of various mesenchymal and epithelial markers. MFBs were isolated from FVB/N mice by differential centrifugation as previously described^50. DB7 mouse breast cancer cells were obtained from Alexander Borowsky (University of California Davis Comprehensive Cancer Center, Sacramento, CA, USA) through an MTA to Ohio State University (OSU). KPC (Kras^LSL-G12D; Trp53^LSL-R172H; Pdx1-Cre) mouse PDAC cells were a gift from Scott Lowe (Memorial Sloan Kettering Cancer Center. (MSKCC)). All cells were cultured at 37° C. in 5% carbon dioxide (CO2) and 20% oxygen (O2) and were maintained in Dulbecco's Modified Eagles medium (DMEM) (25 mM D-glucose, 2 mM L-glutamine) supplemented with 10% fetal bovine serum (FBS) (Gemini), 100 units/ml penicillin and 100 μg/ml streptomycin. Primary PSC and MFB cells were kept in culture for no more than ten passages. Experiments with iCAFs and myCAFs were performed as previously described^29. In brief, qPSCs were generated by culturing PSCs in a dome of GFR Matrigel (Corning) in DMEM; iCAFs were generated by culturing PSCs in a dome of GFR Matrigel in DMEM conditioned by KPC cells for 48 h; myCAFs were generated by monolayer culture of PSCs. Differentiation was validated by analyzing the expression of iCAF/myCAF markers^29. For experiments with different glutamine concentrations, cells were seeded in regular DMEM and the medium was changed 5-6 hours later or the following day to glucose and glutamine-free DMEM supplemented with 10% dialyzed FBS (Gemini) and 20 mM D-glucose, 2 mM L-glutamine (100%), 0.4 mM L-glutamine (20%) or 0.2 mM L-glutamine (10%). All media were prepared by the Media Preparation Facility at MSKCC. Cells were verified as mycoplasma-free by the MycoAlert Mycoplasma Detection Kit (Lonza).
Lysates were generated by incubating cells or ground tumors in RIPA buffer (Millipore); […] of cleared lysate were analyzed by SDS-polyacrylamide gel electrophoresis (SDS-PAGE) as previously described^11. […] The following secondary antibodies were used: anti-rabbit horseradish peroxidase (HRP) (1:5,000; GE, NA934V), anti-mouse HRP (1:5,000; GE, NA931). Quantification of band intensities of collagen I relative to […] or vinculin in tumor allograft experiments was performed with Image Lab software v6.0 (Bio-Rad).

NIH-3T3 cells [3] = settings: proliferative fibroblasts, glutaminase inhibition; cited from earlier work
[4] = 10% Gln, TGFβ, 48 hours (FIG. 1G)

## O=C(Cc1cccc(OC(F)(F)F)c1)Nc1ccc(CCCCc2nnc(NC(=O)Cc3ccccn3)s2)nn1 [CB839]
[1]; 100% Gln, CB839, 48 hours (FIG. 4G)
  m+1 labelling of aspartate and pyruvate carboxylation activity from [3,4-13C]Glc: increased
[1]; CB839, 48 hours (FIG. 4F), indicative of anaplerosis via PC
  m+3 labelling of TCA cycle intermediates and related NEAAs from [U-13C]Glc: increased
NIH-3T3 cells [2]; [4]
  collagen I protein levels: only marginally increased
  rescue of GCN2 activation induced by TGFβ treatment: did not rescue
NIH-3T3 cells [2]; PC-deleted cells (PC sgRNA), CB839, 48 hours (FIG. 4H)
  collagen I levels: reduced collagen I levels
NIH-3T3 cells [2]; full medium (100% Gln), CB839 1 μM alone, 48 hours (FIG. 4E)
  collagen I levels: did not affect
NIH-3T3 cells [3]
  Gln-tRNA charging: restored
